US20210301315A1, “METHODS FOR TREATING POLYMICROBIAL INFECTIONS” (priority 2017, published 2021)
“Also recorded” adds a separate entry of the source.

Legend:
[1] = system: E. coli and K. pneumoniae; assay: P-AST species-pair interaction on antibiotic resistance (logistic regression, HSAP/UP); assay type: cell-based, Escherichia coli; Klebsiella pneumoniae
Description: (§1) The Pooled Antibiotic Sensitivity Test (P-AST) is permitting the organisms identified to grow in the presence of antibiotics and measuring the minimum concentration of antibiotic to inhibit growth. Antibiotic susceptibility testing is performed when at least a single organism within a pool of organisms reaches a certain threshold, (e.g., at least 3,000 cells/ml, at least 5,000 cells/ml, at least 10,000 cells/ml, etc.) and can grow in the presence of the antibiotic in the assay within the time of testing. (Note: 10,000 cells/ml is equivalent to 10,000 CFU/ml.) The present invention is not limited to a 10,000 cells/mL threshold. These pools of organism(s) are inoculated into growth medium then placed onto an antibiotic laden “spec plate” that is then incubated and analyzed for growth. The breakpoints are derived from the CLSI breakpoints.
P-AST was performed by aliquoting 1 mL of patient urine specimen into a 1.7 mL microcentrifuge tube. After centrifugation, the supernatant was aspirated and discarded, leaving approximately 100 or 50 μL (minimum volume left above pellet created from centrifugation) of patient sample in the microcentrifuge tube. […] Optical density of samples was then read on a DensiCHEK plate reader. […] A spectrophotometer (plate reader) is used to measure optical density of the samples in wells of antibiotics and inoculum in order to determine if there is growth in a well. […]

E. coli and P. mirabilis = assay: as above; assay type: cell-based, Escherichia coli; Proteus mirabilis; conditions: E. coli and P. mirabilis together v. expected from each species alone (HSAP/UP)
Description: as §1
(§2) P-AST was performed by aliquoting 1 mL of patient urine specimen into a 1.7 mL microcentrifuge tube. After centrifugation, the supernatant was aspirated and discarded, leaving approximately 100 or 50 μL (minimum volume left above pellet created from centrifugation) of patient sample in the microcentrifuge tube. One mL of Mueller Hinton Growth Media was then aliquoted into the patient sample in the microcentrifuge tube and the tubes were incubated at 35° C. in a non-CO2 incubator for 6 hours. Non-inoculated liquid MH-media is incubated as the negative control to confirm the media used is not contaminated. Those samples that reached a minimum threshold of 10,000 cells/mL were then diluted by aliquoting 0.5 mL of sample into a 50 mL conical tube containing Mueller Hinton Growth Media (in this example, the dilution was 1:60, e.g., 500 μL was added to 29.5 mL). 96-well plates pre-loaded with antibiotics were then inoculated with diluted samples and incubated along with control plates for 12-16 hours at 35° C. in a single layer. Optical density of samples was then read on a DensiCHEK plate reader. The DensiCHEK instrument is used to measure the concentration of turbid samples considered positive because PCR-ID result was >=10,000 cells/mL. The turbid samples were diluted/normalized to the same concentration and then added to a volume of liquid, e.g., 29.5 mL of liquid MH-media. A spectrophotometer (plate reader) is used to measure optical density of the samples in wells of antibiotics and inoculum in order to determine if there is growth in a well. The present invention is not limited to a concentration of 10,000 cells/mL.
(§3) Interactions between pairs of bacterial species were investigated using a logistic regression model to predict resistance in the presence of specific bacterial species. Bacterial species that tested positive in at least 30 samples were considered in the regression model: these 16 species were A. schaalii, A. urinae, A. omnicolens, CoNS, C. riegelii, E. faecalis, E. coli, K. oxytoca, K. pneumoniae, M. morganii, P. mirabilis, P. aeruginosa, S. aureus, S. agalactiae, U. urealyticum, VGS. Backward stepwise model selection was performed on the model with all main effects and all pairwise interactions using an enter significance level of α=0.10 and an exit significance level of α=0.05 to obtain the best fitting model. This model was used to predict resistance rates when a specific organism was present or when a specific pair of organisms were present.
(§4) Using the logistic regression model described above, the resistance rate for a pair of species was compared to the resistance rates for each species alone. […]

[2] = system: bacterial organisms present in patient urine sample; assay: Antibiotic Resistance (ABR) assay utilizing liquid growth medium; assay type: cell-based; conditions: liquid medium
Description: Urine samples suitable for processing with this assay are collected, transported, and stored using BD Vacutainer tubes or other suitable leak-proof sterile containers. Urine samples may be held at room temperature for 48 hours before test results are compromised.
Antibiotic stocks are stored at 2-8° C. and protected from direct sunlight. Prepared antibiotic stock solutions were aliquoted into a 96-deep well plate (ThermoFisher Scientific) to form a 50× Antibiotic Source Plate and then diluted 1:5 to form a 10× Antibiotic Source Plate, as shown in FIG. 12 where each well is identified by antibiotic name and concentration (μg/mL; 10× final concentration). […] One well was assigned sodium azide to ensure no bacterial growth would be observed in that well.
Twenty microliters of each antibiotic solution were aliquoted into the pre-determined wells of a 96-well microplate (VIS 96/F-PS, Eppendorf) from the 10× Antibiotic Source Plate to create ABR testing plates for inoculation. These ABR testing plates were allowed to sit for up to 24 hours before use at 2-8° C. in the dark.
At the time of testing, urine samples were centrifuged to concentrate any bacterial cells and then mixed with liquid Mueller-Hinton medium and incubated for 6-16 hours at 37° C. After this initial incubation, the sample is diluted to 0.5-0.6 McF in saline and then 500 μl of that suspension was added to […] of Mueller-Hinton medium. One-hundred and eighty microliters of the diluted sample is then aliquoted to each well of the ABR microplate already containing 10× antibiotic solution, bringing all of the antibiotics to the desired final concentration. The plate is then sealed and incubated for 12-16 hours at 37° C.
After incubation, the plate was removed from the incubator and carefully uncovered and the OD600 was determined for each appropriate well by spectrophotometer. Five separate measurements were taken of each well on a plate and the mean OD600 measurement calculated for each well.
Controls are depicted in Table 10.
The raw data was then “blanked” using the measurement obtained from the Na-Azide well, as depicted in Table 14.
(§5) To determine whether bacterial organisms present in the patient samples were resistant or sensitive to a particular antibiotic at a certain concentration, blanked OD readings were compared to a threshold OD600 of 0.065 (Table 15). An OD measurement greater than or equal to this threshold was designated Resistant (R) meaning bacterial organisms present in patient sample were resistant to that particular antibiotic at that certain concentration. Any OD measurement less than this threshold was designated Sensitive (S) meaning bacterial organisms present in patient sample were sensitive to that particular antibiotic at that certain concentration.

[3] = system: E. coli and S. agalactiae; assay: P-AST species-pair interaction on antibiotic resistance (logistic regression, HSAP/UP); assay type: cell-based, Escherichia coli; Streptococcus agalactiae; conditions: E. coli and S. agalactiae together v. expected from each species alone (HSAP/UP)
Description: as §1, §2, §3, §4

[4] = system: bacterial organisms present in patient urine sample; assay: Antibiotic Resistance (ABR) assay utilizing agar-containing medium; assay type: cell-based
Description: Urine samples suitable for processing with this assay are collected, transported, and stored using BD Vacutainer (gray top) tubes or other suitable leak-proof sterile container. Urine samples may be held at room temperature for 48 hours before test results are compromised.
Antibiotic stocks are stored at 2-8° C. and protected from direct sunlight. Prepared antibiotic stock solutions were aliquoted into a 96-deep well plate (Thermo Fisher Scientific) to form an Antibiotic Source Plate, as shown in FIG. 11 and identified by antibiotic name and concentration (μg/mL; 10× final concentration). […] One well was designated AB-blend which contained a combination of antibiotics to ensure there was no bacterial growth.
One hundred microliters of Mueller-Hinton agar medium was aliquoted into each appropriate well position of a 96-well microplate (VIS 96/F-PS, Eppendorf). The medium was allowed to solidify at room temperature for at least 10 min.
The antibiotics (10 μL) at various concentrations were then aliquoted into desired wells from the Antibiotic Source Plate. After the antibiotics were introduced to the agar medium, the ABR microplates were allowed to sit for at least 1 hr before use. If long-term storage is required, ABR microplates containing antibiotic-infuse agar are stored at 2-8° C. in the dark.
At the time of testing, urine samples were diluted 1:20 in sterile saline and vortexed. Each patient sample utilized a single ABR microplate. Five microliters of diluted patient sample were added to each well of the room temperature microplate, the plate was sealed and incubated for 16-18 hr at 37° C.
After incubation, the plate was removed from the incubator and carefully uncovered. Two-hundred microliters of deionized water were added to each well to suspend cells present above the agar and the plates incubated at room temperature for 30 min. After 30 min, 100 μl from each well was removed to a new plate and the OD600 was determined in a spectrophotometer. Five separate reads were taken of each plate and a mean OD600 measurement calculated.
Controls include: No-antibiotic control, Negative control plate, and AB-Blend. No antibiotic control: Any well containing medium that is not infused with antibiotics to ensure viability of bacterial cells present in patient urine samples and included in each plate. […] Negative control plate: Microplate containing antibiotic-infused agar medium without addition of patient sample or cultured bacterial organisms to ensure non-contamination of reagents. AB-Blend: One or more wells containing a combination of antibiotics to ensure there is no bacterial growth.
The raw data was then “blanked” using the measurement obtained from the AB-Blend well, as depicted in Table 5.
as §5, with “0.025” for “0.065”, “6). Any” for “15). An”

SMILES	change in antibiotic resistance of the pair of organisms (E. coli and P. mirabilis)	Blanked (OD600 minus Na-Azide well) ([2]; antibiotic 8 μg/mL)	Mean (OD600) ([2]; antibiotic 8 μg/mL)	Blanked (OD600 minus Na-Azide well) ([2]; antibiotic 32 μg/mL)	Mean (OD600) ([2]; antibiotic 32 μg/mL)	Blanked (OD600 minus Na-Azide well) ([2]; antibiotic 2 μg/mL)	Mean (OD600) ([2]; antibiotic 2 μg/mL)	Blanked (OD600 minus Na-Azide well) ([2]; antibiotic 16 μg/mL)	Mean (OD600) ([2]; antibiotic 16 μg/mL)	Blanked (OD600 minus Na-Azide well) ([2]; antibiotic 4 μg/mL)	Mean (OD600) ([2]; antibiotic 4 μg/mL)	Blanked (OD600 minus AB-Blend well) ([4]; antibiotic 4 μg/mL)	Mean (OD600) ([4]; antibiotic 4 μg/mL)	Blanked (OD600 minus AB-Blend well) ([4]; antibiotic 8 μg/mL)	Mean (OD600) ([4]; antibiotic 8 μg/mL)	also measured
N[C@@H](C(=O)N[C@@H]1C(=O)N2C(C(=O)O)=C(Cl)CS[C@H]12)c1ccccc1 [Cefaclor, cefaclor]	decrease in resistance; also recorded: decreased odds of resistance	0.1875	0.2332	0.0143	0.0600	–	–	–	–	–	–	–	–	–	–	change in antibiotic resistance of the pair of organisms ([1]; E. coli and K. pneumoniae together v. expected from each species alone (HSAP/UP)): increased odds of resistance; also recorded: higher resistance; also recorded: increased the probability of antibiotic resistance; also recorded: increase in resistance; resistance rate of the combination compared with each species alone ([1]; predicted probabilities, FIG. 1, HSAP model): higher than either E. coli or K. pneumoniae alone
Cc1nnc(SCC2=C(C(=O)O)N3C(=O)[C@@H](NC(=O)Cn4cnnn4)[C@H]3SC2)s1 [Cefazolin, cefazolin]	decrease in resistance; also recorded: decreased odds of resistance	0.1633	0.2090	0.0113	0.0570	0.1882	0.2339	0.1011	0.1468	–	–	–	–	–	–	–
CC(C)(O/N=C(\C(=O)N[C@@H]1C(=O)N2C(C(=O)[O-])=C(C[n+]3ccccc3)CS[C@H]12)c1csc(N)n1)C(=O)O [Ceftazidime, ceftazidime]	decrease in resistance; also recorded: decreased odds of resistance	0.2150	0.2607	0.1980	0.2437	–	–	0.2016	0.2473	0.2000	0.2457	–	–	–	–	change in antibiotic resistance of the pair of organisms [3]: decrease in resistance; also recorded: decreased odds of resistance
C[C@H]1COc2c(N3CCN(C)CC3)c(F)cc3c(=O)c(C(=O)O)cn1c23 [Levofloxacin, levofloxacin]	–	−0.0014	0.0443	–	–	−0.0021	0.0436	–	–	−0.0026	0.0431	0.0360	0.0744	0.0028	0.0412	Blanked (OD600 minus AB-Blend well) ([4]; antibiotic 1 μg/mL): 0.0024; Mean (OD600) ([4]; antibiotic 1 μg/mL): 0.0408; Blanked (OD600 minus AB-Blend well) ([4]; antibiotic 2 μg/mL): 0.0017; Mean (OD600) ([4]; antibiotic 2 μg/mL): 0.0401; Blanked (OD600 minus Na-Azide well) ([2]; antibiotic 1 μg/mL): 0.0723; Mean (OD600) ([2]; antibiotic 1 μg/mL): 0.1180
O=C1CN(/N=C/c2ccc([N+](=O)[O-])o2)C(=O)N1 [Nitrofurantoin, nitrofurantoin]	–	–	–	0.0095	0.0552	–	–	–	–	–	–	–	–	–	–	Blanked (OD600 minus AB-Blend well) ([4]; antibiotic 32 μg/mL): 0.0003; Mean (OD600) ([4]; antibiotic 32 μg/mL): 0.0387; Blanked (OD600 minus AB-Blend well) ([4]; antibiotic 64 μg/mL): 0.0002; Mean (OD600) ([4]; antibiotic 64 μg/mL): 0.0386
CN(C)[C@@H]1C(O)=C(C(N)=O)C(=O)[C@@]2(O)C(O)=C3C(=O)c4c(O)cccc4[C@@](C)(O)[C@H]3C[C@@H]12 [tetracycline]	–	0.1139	0.1596	–	–	0.1627	0.2084	0.0082	0.0539	0.1767	0.2224	0.3920	0.4304	0.4012	0.4396	Blanked (OD600 minus AB-Blend well) ([4]; antibiotic 16 μg/mL): 0.4166; Mean (OD600) ([4]; antibiotic 16 μg/mL): 0.4550
